Each compound was assayed against T1, full length AKT E17K (Homo sapiens, UniProt P31749, E17K) (assay: NanoBRET Target Engagement (TE) Assay). Conditions: competitive displacement of tracer in cells, read-out: AKT1 E17K IC50.
T1 construct: host or cells: HEK-293 (ATCC CRL-1573)
Type: cell-based
Outline: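 Compound and tracer incubated 2 h before luminescence at donor 450 nm and acceptor 600 nm, with extracellular signal inhibited. EC50 by sigmoidal variable-slope regression.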

T1 sequence (P31749 whole entry E17K): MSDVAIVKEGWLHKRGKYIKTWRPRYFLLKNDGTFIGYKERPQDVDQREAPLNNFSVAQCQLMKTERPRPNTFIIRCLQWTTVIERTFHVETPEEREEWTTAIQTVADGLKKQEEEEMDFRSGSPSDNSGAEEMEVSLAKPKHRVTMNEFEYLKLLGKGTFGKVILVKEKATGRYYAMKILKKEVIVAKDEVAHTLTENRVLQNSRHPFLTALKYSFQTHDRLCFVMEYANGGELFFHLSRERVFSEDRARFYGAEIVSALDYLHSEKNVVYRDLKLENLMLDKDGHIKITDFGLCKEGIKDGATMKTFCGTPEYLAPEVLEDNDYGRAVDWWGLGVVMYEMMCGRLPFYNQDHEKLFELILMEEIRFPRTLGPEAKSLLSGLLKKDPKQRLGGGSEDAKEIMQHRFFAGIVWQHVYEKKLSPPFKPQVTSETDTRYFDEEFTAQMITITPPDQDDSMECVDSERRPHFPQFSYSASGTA

| IC50 | SMILES |
| --- | --- |
| < 15 nM | Cc1nc2c(cc1C#N)nc(-c1cccnc1N)n2-c1ccc(CN2CCC(Nc3ccnc(C#N)n3)CC2)cc1 [Example 550, 2-(2-Aminopyridin-3-yl)-3-(4-((4-((2-cyanopyrimidin-4-yl)amino)piperidin-1-yl)methyl)phenyl)-5-methyl-3H-imidazo[4,5-b]pyridine-6-carbonitrile] |
| < 15 nM | N#Cc1nccc(NC2CCN(Cc3ccc(-n4c(-c5cccnc5N)nc5ccc(-c6ccncc6F)nc54)cc3)CC2)n1 [Example 551, 4-((1-(4-(2-(2-aminopyridin-3-yl)-5-(3-fluoropyridin-4-yl)-3H-imidazo[4,5-b]pyridin-3-yl)benzyl)piperidin-4-yl)amino)pyrimidine-2-carbonitrile] |
| < 15 nM | COc1ccc(-c2ccc3nc(-c4cccnc4N)n(-c4ccc(CN5CCC(Nc6ccnc(C#N)n6)CC5)cc4)c3n2)nc1 [Example 552, 4-((1-(4-(2-(2-Aminopyridin-3-yl)-5-(5-methoxypyridin-2-yl)-3H-imidazo[4,5-b]pyridin-3-yl)benzyl)piperidin-4-yl)amino)pyrimidine-2-carbonitrile] |
| 15 to 60 nM | N#Cc1cc2c(cn1)nc(-c1cccnc1N)n2-c1ccc(CN2CCC(Nc3ccnc(C#N)n3)CC2)cc1 [Example 553, 2-(2-Aminopyridin-3-yl)-1-(4-((4-((2-cyanopyrimidin-4-yl)amino)piperidin-1-yl)methyl)phenyl)-1H-imidazo[4,5-c]pyridine-6-carbonitrile] |
| < 15 nM | Cc1ncoc1-c1ccc2nc(-c3cccnc3N)n(-c3ccc(CN4CCC(Nc5ccnc(C#N)n5)CC4)cc3)c2n1 [Example 554, 4-((1-(4-(2-(2-Aminopyridin-3-yl)-5-(4-methyloxazol-5-yl)-3H-imidazo[4,5-b]pyridin-3-yl)benzyl)piperidin-4-yl)amino)pyrimidine-2-carbonitrile] |
| < 15 nM | N#Cc1nccc(NC2CCN(Cc3ccc(-n4c(-c5cccnc5N)nc5ccc(-c6cnn(C7CC7)c6)nc54)cc3)CC2)n1 [Example 555, 4-((1-(4-(2-(2-Aminopyridin-3-yl)-5-(1-cyclopropyl-1H-pyrazol-4-yl)-3H-imidazo[4,5-b]pyridin-3-yl)benzyl)piperidin-4-yl)amino)pyrimidine-2-carbonitrile] |
| 600 to 10000 nM | N#Cc1nccc(NC2CCN(Cc3ccc(-n4c(-c5cccnc5N)nc5nc(C#N)c(C#N)nc54)cc3)CC2)n1 [Example 556, 2-(2-Aminopyridin-3-yl)-1-(4-((4-((2-cyanopyrimidin-4-yl)amino)piperidin-1-yl)methyl)phenyl)-1H-imidazo[4,5-b]pyrazine-5,6-dicarbonitrile] |
| < 15 nM | N#Cc1nccc(NC2CCN(Cc3ccc(-n4c(-c5cccnc5N)nc5cc(C#N)c(-c6ccc(F)cc6)nc54)cc3)CC2)n1 [Example 557, 2-(2-Aminopyridin-3-yl)-3-(4-((4-((2-cyanopyrimidin-4-yl)amino)piperidin-1-yl)methyl)phenyl)-5-(4-fluorophenyl)-3H-imidazo[4,5-b]pyridine-6-carbonitrile] |
| < 15 nM | N#Cc1nccc(NC2CCN(Cc3ccc(-n4c(-c5cccnc5N)nc5ccc(-c6cccnc6F)nc54)cc3)CC2)n1 [Example 558, 4-((1-(4-(2-(2-Aminopyridin-3-yl)-5-(2-fluoropyridin-3-yl)-3H-imidazo[4,5-b]pyridin-3-yl)benzyl)piperidin-4-yl)amino)pyrimidine-2-carbonitrile] |
| 15 to 60 nM | Cn1cnc(-c2ccc3nc(-c4cccnc4N)n(-c4ccc(CN5CCC(Nc6ccnc(C#N)n6)CC5)cc4)c3n2)n1 [Example 559, 4-((1-(4-(2-(2-Aminopyridin-3-yl)-5-(1-methyl-1H-1,2,4-triazol-3-yl)-3H-imidazo[4,5-b]pyridin-3-yl)benzyl)piperidin-4-yl)amino)pyrimidine-2-carbonitrile] |
| < 15 nM | CCOc1ccc(-c2ccc3nc(-c4cccnc4N)n(-c4ccc(CN5CCC(Nc6ccnc(C#N)n6)CC5)cc4)c3n2)nc1 [Example 560, 4-((1-(4-(2-(2-Aminopyridin-3-yl)-5-(5-ethoxypyridin-2-yl)-3H-imidazo[4,5-b]pyridin-3-yl)benzyl)piperidin-4-yl)amino)pyrimidine-2-carbonitrile] |
| < 15 nM | N#Cc1nccc(NC2CCN(Cc3ccc(-n4c(-c5cccnc5N)nc5ccc(-c6ccnc(F)c6)nc54)cc3)CC2)n1 [Example 561, 4-((1-(4-(2-(2-Aminopyridin-3-yl)-5-(2-fluoropyridin-4-yl)-3H-imidazo[4,5-b]pyridin-3-yl)benzyl)piperidin-4-yl)amino)pyrimidine-2-carbonitrile] |
| < 15 nM | Cn1ncc(-c2ccc3nc(-c4nccnc4N)n(-c4ccc(CN5CCC(Nc6ccnc(C#N)n6)CC5)cc4)c3n2)n1 [Example 562, 4-((1-(4-(2-(3-Aminopyrazin-2-yl)-5-(2-methyl-2H-1,2,3-triazol-4-yl)-3H-imidazo[4,5-b]pyridin-3-yl)benzyl)piperidin-4-yl)amino)pyrimidine-2-carbonitrile] |
| < 15 nM | COc1cccnc1-c1ccc2nc(-c3cccnc3N)n(-c3ccc(CN4CCC(Nc5ccnc(C#N)n5)CC4)cc3)c2n1 [Example 563, 4-((1-(4-(2-(2-Aminopyridin-3-yl)-5-(3-methoxypyridin-2-yl)-3H-imidazo[4,5-b]pyridin-3-yl)benzyl)piperidin-4-yl)amino)pyrimidine-2-carbonitrile] |
| 15 to 60 nM | Cn1nncc1-c1ccc2nc(-c3cccnc3N)n(-c3ccc(CN4CCC(Nc5ccnc(C#N)n5)CC4)cc3)c2n1 [Example 564, 4-((1-(4-(2-(2-Aminopyridin-3-yl)-5-(1-methyl-1H-1,2,3-triazol-5-yl)-3H-imidazo[4,5-b]pyridin-3-yl)benzyl)piperidin-4-yl)amino)pyrimidine-2-carbonitrile] |
| < 15 nM | Cc1cc2nc(-c3cccnc3N)n(-c3ccc(CN4CCC(Nc5ccnc(C#N)n5)CC4)cc3)c2nc1C#N [Example 565, 2-(2-Aminopyridin-3-yl)-3-(4-((4-((2-cyanopyrimidin-4-yl)amino)piperidin-1-yl)methyl)phenyl)-6-methyl-3H-imidazo[4,5-b]pyridine-5-carbonitrile] |
| 15 to 60 nM | Cc1nnc(-c2ccc3nc(-c4cccnc4N)n(-c4ccc(CN5CCC(Nc6ccnc(C#N)n6)CC5)cc4)c3n2)o1 [Example 566, 4-((1-(4-(2-(2-Aminopyridin-3-yl)-5-(5-methyl-1,3,4-oxadiazol-2-yl)-3H-imidazo[4,5-b]pyridin-3-yl)benzyl)piperidin-4-yl)amino)pyrimidine-2-carbonitrile] |
| < 15 nM | Cn1ncnc1-c1ccc2nc(-c3cccnc3N)n(-c3ccc(CN4CCC(Nc5ccnc(C#N)n5)CC4)cc3)c2n1 [Example 567, 4-((1-(4-(2-(2-Aminopyridin-3-yl)-5-(1-methyl-1H-1,2,4-triazol-5-yl)-3H-imidazo[4,5-b]pyridin-3-yl)benzyl)piperidin-4-yl)amino)pyrimidine-2-carbonitrile] |
| < 15 nM | Cc1cnn(-c2ccc3nc(-c4cccnc4N)n(-c4ccc(CN5CCC(Nc6ccnc(C#N)n6)CC5)cc4)c3n2)n1 [Example 568, 4-((1-(4-(2-(2-Aminopyridin-3-yl)-5-(4-methyl-2H-1,2,3-triazol-2-yl)-3H-imidazo[4,5-b]pyridin-3-yl)benzyl)piperidin-4-yl)amino)pyrimidine-2-carbonitrile] |
| 60 to 600 nM | Cn1cnnc1-c1ccc2nc(-c3cccnc3N)n(-c3ccc(CN4CCC(Nc5ccnc(C#N)n5)CC4)cc3)c2n1 [Example 569, 4-((1-(4-(2-(2-Aminopyridin-3-yl)-5-(4-methyl-4H-1,2,4-triazol-3-yl)-3H-imidazo[4,5-b]pyridin-3-yl)benzyl)piperidin-4-yl)amino)pyrimidine-2-carbonitrile] |
| < 15 nM | N#Cc1nccc(NC2CCN(Cc3ccc(-n4c(-c5cccnc5N)nc5ccc(-c6ncccc6F)nc54)cc3)CC2)n1 [Example 570, 4-((1-(4-(2-(2-Aminopyridin-3-yl)-5-(3-fluoropyridin-2-yl)-3H-imidazo[4,5-b]pyridin-3-yl)benzyl)piperidin-4-yl)amino)pyrimidine-2-carbonitrile] |
| < 15 nM | Cc1cccc(-c2ccc3nc(-c4cccnc4N)n(-c4ccc(CN5CCC(Nc6ccnc(C#N)n6)CC5)cc4)c3n2)n1 [Example 571, 4-((1-(4-(2-(2-Aminopyridin-3-yl)-5-(6-methylpyridin-2-yl)-3H-imidazo[4,5-b]pyridin-3-yl)benzyl)piperidin-4-yl)amino)pyrimidine-2-carbonitrile] |
| < 15 nM | N#Cc1nccc(NC2CCN(Cc3ccc(-n4c(-c5cccnc5N)nc5ccc(-c6ncn(C(F)F)n6)nc54)cc3)CC2)n1 [Example 572, 4-((1-(4-(2-(2-Aminopyridin-3-yl)-5-(1-(difluoromethyl)-1H-1,2,4-triazol-3-yl)-3H-imidazo[4,5-b]pyridin-3-yl)benzyl)piperidin-4-yl)amino)pyrimidine-2-carbonitrile] |
| 15 to 60 nM | N#Cc1nccc(NC2CCN(Cc3ccc(-n4c(-c5cncnc5N)nc5ccc(-c6ccc(F)cn6)nc54)cc3)CC2)n1 [Example 573, 4-((1-(4-(2-(4-Aminopyrimidin-5-yl)-5-(5-fluoropyridin-2-yl)-3H-imidazo[4,5-b]pyridin-3-yl)benzyl)piperidin-4-yl)amino)pyrimidine-2-carbonitrile] |
| < 15 nM | N#Cc1nccc(NC2CCN(Cc3ccc(-n4c(-c5nccnc5N)nc5ccc(-c6ccc(F)cn6)nc54)cc3)CC2)n1 [Example 574, 4-((1-(4-(2-(3-Aminopyrazin-2-yl)-5-(5-fluoropyridin-2-yl)-3H-imidazo[4,5-b]pyridin-3-yl)benzyl)piperidin-4-yl)amino)pyrimidine-2-carbonitrile] |
| 60 to 600 nM | N#Cc1nccc(NC2CCN(Cc3ccc(-n4c(-c5cccnc5)nc5ccc(-c6ccc(F)cn6)nc54)cc3)CC2)n1 [Example 575, 4-((1-(4-(5-(5-Fluoropyridin-2-yl)-2-(pyridin-3-yl)-3H-imidazo[4,5-b]pyridin-3-yl)benzyl)piperidin-4-yl)amino)pyrimidine-2-carbonitrile] |

From patent publication US12209087B2, “AKT1 modulators” (Alterome Therapeutics, Inc., priority 2022, dated 2025)
